Values joined by “and” are separate entries in the source; they are usually repeats but may differ in a detail not shown here. Identical values can stand only once.
Conditions: Liquid; for vapor or sublimation pressure: Closed cell (Static) method; for mass density: determined from pressure vs temperature measurement to find liquid-full point for a closed cell

CO[Si](OC)(OC)OC [silicon tetramethoxide]
Conditions	mass density	vapor or sublimation pressure
334.15 K	990 kg/m3	30 kPa
335.15 K	–	30 kPa
336.15 K	–	30 kPa
337.15 K	–	30 kPa
338.15 K	–	30 kPa
339.15 K	–	30 kPa
341.15 K	–	30 kPa
342.15 K	–	30 kPa
343.15 K	–	30 kPa
344.15 K	–	30 kPa
345.15 K	–	40 kPa
347.15 K	–	40 kPa
348.15 K	940 kg/m3	40 kPa
349.15 K	–	40 kPa
351.15 K	–	40 kPa
352.15 K	–	40 kPa
353.15 K	–	40 kPa
355.15 K	–	40 kPa
356.15 K	–	40 kPa
357.15 K	–	50 kPa
358.15 K	–	50 kPa
359.15 K	–	50 kPa
361.15 K	–	50 kPa
362.15 K	–	50 kPa
363.15 K	–	50 kPa
364.15 K	–	50 kPa
365.15 K	920 kg/m3	50 kPa
366.15 K	–	60 kPa
368.15 K	–	60 kPa
369.15 K	–	60 kPa
370.15 K	–	60 kPa
371.15 K	–	60 kPa
372.15 K	–	60 kPa
373.1 K	–	70 kPa
374.15 K	–	70 kPa
375.15 K	–	70 kPa
377.15 K	–	70 kPa
378.15 K	–	80 kPa
379.15 K	–	80 kPa
380.15 K	–	80 kPa
381.15 K	–	80 kPa
382.15 K	–	90 kPa
383.15 K	900 kg/m3	–
384.15 K	–	90 kPa
385.15 K	–	90 kPa
386.15 K	–	90 kPa
387.15 K	–	100 kPa
388.15 K	–	100 kPa
389.15 K	880 kg/m3	–
390.15 K	–	100 kPa
391.15 K	–	110 kPa
392.15 K	–	110 kPa
393.15 K	–	110 kPa
394.15 K	–	120 kPa
395.15 K	–	120 kPa
397.15 K	–	130 kPa
398.15 K	–	130 kPa
399.15 K	–	130 kPa
400.15 K	–	140 kPa
401.15 K	–	140 kPa
403.15 K	–	150 kPa
404.15 K	–	150 kPa
405.15 K	–	160 kPa
406.15 K	850 kg/m3	160 kPa
407.15 K	–	170 kPa
408.15 K	–	170 kPa
409.15 K	–	180 kPa
411.15 K	–	180 kPa
412.15 K	–	190 kPa
413.15 K	–	190 kPa
414.15 K	–	200 kPa
415.15 K	840 kg/m3	200 kPa
417.15 K	–	210 kPa
418.15 K	–	220 kPa
419.15 K	–	220 kPa
420.15 K	–	230 kPa
421.15 K	–	230 kPa
422.15 K	–	240 kPa
424.15 K	–	250 kPa
425.15 K	–	260 kPa
426.15 K	–	260 kPa
427.15 K	–	270 kPa
428.15 K	–	280 kPa
429.15 K	–	280 kPa
430.15 K	–	290 kPa
432.15 K	–	300 kPa
433.15 K	–	310 kPa
434.15 K	800 kg/m3	320 kPa
435.15 K	–	320 kPa
436.15 K	–	330 kPa
437.15 K	–	340 kPa
439.15 K	–	350 kPa
440.15 K	800 kg/m3	360 kPa
441.15 K	–	360 kPa
442.15 K	–	370 kPa
443.15 K	–	380 kPa
444.15 K	–	390 kPa
445.15 K	–	400 kPa
447.15 K	–	410 kPa
448.15 K	–	410 kPa
449.15 K	–	420 kPa
450.15 K	–	430 kPa
451.15 K	–	440 kPa
452.15 K	–	450 kPa
453.15 K	–	460 kPa
454.15 K	–	470 kPa
456.15 K	–	480 kPa
457.15 K	–	490 kPa
458.15 K	–	500 kPa
459.15 K	–	510 kPa
460.15 K	–	520 kPa
461.15 K	–	530 kPa
462.15 K	–	550 kPa
463.15 K	750 kg/m3 and 770 kg/m3	560 kPa
465.15 K	–	570 kPa
466.15 K	–	580 kPa
467.15 K	–	590 kPa
468.15 K	–	610 kPa
469.15 K	–	620 kPa
470.15 K	–	630 kPa
471.15 K	–	650 kPa
472.15 K	–	660 kPa
474.15 K	–	670 kPa
475.15 K	–	690 kPa
476.15 K	–	700 kPa
477.15 K	–	720 kPa
478.15 K	–	730 kPa
479.15 K	–	750 kPa
480.15 K	710 kg/m3	760 kPa
481.15 K	–	780 kPa
482.15 K	–	790 kPa
483.15 K	730 kg/m3	810 kPa
485.15 K	–	820 kPa
486.15 K	–	840 kPa
487.15 K	–	860 kPa
488.15 K	–	870 kPa
489.15 K	–	890 kPa
490.15 K	–	910 kPa
491.15 K	–	920 kPa
492.15 K	–	940 kPa
493.15 K	–	960 kPa
494.15 K	–	980 kPa
495.15 K	–	1000 kPa
497.15 K	–	1010 kPa
498.15 K	–	1030 kPa
499.15 K	–	1050 kPa
500.15 K	–	1070 kPa
501.15 K	–	1090 kPa
502.15 K	690 kg/m3	1110 kPa
503.15 K	–	1130 kPa
504.15 K	–	1150 kPa
505.15 K	–	1160 kPa
506.15 K	–	1180 kPa
507.15 K	–	1200 kPa
508.15 K	–	1220 kPa
509.15 K	–	1250 kPa
510.15 K	–	1270 kPa
512.15 K	–	1280 kPa
513.15 K	–	1300 kPa
514.15 K	–	1320 kPa and 1340 kPa
516.15 K	–	1360 kPa
517.15 K	–	1380 kPa
518.15 K	–	1400 kPa
519.15 K	650 kg/m3	1420 kPa
520.15 K	–	1440 kPa
521.15 K	–	1460 kPa
522.15 K	–	1480 kPa
532.15 K	610 kg/m3	–

Reference: the NIST ThermoML archive (doi:10.1021/je700443d)
